Converted amounts (≈) assume the structure as drawn. The source made the active and inactive calls. No cut-off for these calls is given here.
Tests used:
[1] = system: Haemonchus contortus; assay: Anthelmintic activity against Haemonchus contortus assessed as reduction in L3 larval motility; type: functional
[2] = molecular target: Stromelysin-1 (Homo sapiens, UniProt P08254); assay: Inhibition of stromelysin mediated beta-casein cleavage
Chain of Stromelysin-1 (P08254 whole entry): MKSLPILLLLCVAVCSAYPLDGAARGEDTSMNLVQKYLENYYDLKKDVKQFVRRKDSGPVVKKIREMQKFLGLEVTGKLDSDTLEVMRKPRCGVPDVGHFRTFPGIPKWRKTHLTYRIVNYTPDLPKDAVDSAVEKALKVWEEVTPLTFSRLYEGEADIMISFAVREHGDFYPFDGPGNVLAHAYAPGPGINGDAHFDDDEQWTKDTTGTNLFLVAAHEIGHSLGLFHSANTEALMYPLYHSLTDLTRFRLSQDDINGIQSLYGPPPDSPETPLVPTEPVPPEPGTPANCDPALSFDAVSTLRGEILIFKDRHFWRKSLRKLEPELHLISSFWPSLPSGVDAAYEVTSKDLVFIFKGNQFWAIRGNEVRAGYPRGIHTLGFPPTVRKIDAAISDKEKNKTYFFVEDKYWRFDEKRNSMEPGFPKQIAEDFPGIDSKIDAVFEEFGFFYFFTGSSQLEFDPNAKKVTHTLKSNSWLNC

Row | Compound | Activity [1] | EC90 [1] | IC50 [2]
1 | Cc1cc(=O)c(O)cc2c1C[C@@H]1CC(C)(C)/C=C/C[C@@]3(C)Oc4cc(O)cc(C)c4C[C@@H]3C[C@@H](O)[C@]1(C)O2 | inactive | – | –
2 | Cc1cc(=O)c(O)cc2c1C[C@@H]1CC(C)(C)/C=C/C[C@@]3(C)Oc4cc(O)c(=O)cc(C)c4C[C@@H]3C[C@@H](O)[C@]1(C)O2 [EUPENIFELDIN] | – | 50 µg/mL (≈ 91.1 µM) | –
3 | Cc1cc(=O)c(O)cc2c1C[C@H]1CC(C)(C)/C=C/C[C@@]3(C)Oc4cc(O)c(=O)cc(C)c4C[C@@H]3C[C@H](O)[C@]1(C)O2 [PYCNIDIONE] | – | 83 µg/mL (≈ 151 µM) | 31 µM
4 | IVERMECTIN | – | 0.18 µg/mL | –

Source: ChEMBL document CHEMBL1142428, “Noreupenifeldin, a tropolone from an unidentified ascomycete” (J Nat Prod, 2008)
